Active and inactive are the calls of the source. The rule behind the calls is not given here.
How the values were obtained:
Plasmodium falciparum [1] = assay: Displacement of bis-ANS from Plasmodium falciparum 3D7 Hsp90 expressed in Escherichia coli BL21(DE3) assessed as reduction in fluorescence at 100 uM after 30 min by fluorescent monochromator spectrophotometry; format: functional; design: scale not given: the % may be the effect or the level left
[2] = molecular target: Heat shock protein HSP90 (Homo sapiens) (UniProt P07900+P08238); assay: Displacement of bis-ANS from human Hsp90 assessed as reduction in fluorescence at 100 uM after 30 mins by fluorescent monochromator spectrophotometry; format: protein assay
Plasmodium falciparum [3] = assay: Antimalarial activity against Plasmodium falciparum 3D7 infected in human erythrocytes after 48 hrs by flow-cytometry; format: functional, organism-based; conditions: 3D7, 48 h
Plasmodium falciparum [4] = assay: Antimalarial activity against chloroquine-resistant Plasmodium falciparum W2 infected in human erythrocytes after 48 hrs by flow-cytometry; format: functional, organism-based; conditions: W2, 48 h
Plasmodium falciparum [5] = assay: Antimalarial activity against multidrug-resistant Plasmodium falciparum isolate 208432 infected in human erythrocytes after 48 hrs by flow-cytometry; format: functional, organism-based; conditions: isolate 208432, 48 h

Structure (SMILES)	Activity (Plasmodium falciparum [1])	Activity [2]	IC50 (Plasmodium falciparum [3])	IC50 (Plasmodium falciparum [4])	IC50 (Plasmodium falciparum [5])
NC(CP(=O)(O)O)C(=O)O (racemic)	> 70%	inactive	60.3 nM	84.4 nM	47.1 nM
C[C@@H]1CC[C@H]2[C@@H](C)C(=O)O[C@@H]3O[C@@]4(C)CC[C@@H]1[C@]32OO4 [ARTEMISININ]	–	–	6.1 nM	7.3 nM	68.3 nM
COc1ccc2c(c1)[nH]c1c(C)nccc12 [HARMINE]	> 70%	inactive	50.1 nM	28 nM	182 nM
OC(c1cc(C(F)(F)F)nc2c(C(F)(F)F)cccc12)C1CCCCN1 (stereo not given) [MEFLOQUINE]	–	–	2.1 nM	3.2 nM	–

From ChEMBL document CHEMBL1157896, “A repurposing strategy identifies novel synergistic inhibitors of Plasmodium falciparum heat shock protein 90” (J Med Chem, 2010)
